As a reminder, the Cmax is the peak of the concentration-time curve.

The values that follow come from ChEMBL document CHEMBL1275422, “Cerebrospinal fluid compartmental pharmacokinetics of amikacin in neonates” (Antimicrob Agents Chemother, 2008).

Data set [1] in a line: Drug uptake in human neonate CSF after 25 hrs by HPLC. The format is ADME, organism-based, Cerebrospinal fluid.
The nature of data set [2]: Cmin in human neonate serum after 25 hrs by fluorescence polarization immunoassay. Type of data set: ADME. The settings on record: read-out: Cmin. (In general: Fluorescence polarisation rises when a labelled molecule tumbles more slowly, as on binding a larger partner.)
The nature of data set [3]: Cmax in human neonate serum after 25 hrs by fluorescence polarization immunoassay. Type of data set: ADME, organism-based.
Data set [4] in a line: Cmax in human neonate at 10 mg/kg, iv by HPLC. The format is ADME, organism-based. Also on record: dose 10 mg/kg, route intravenous. The settings on record: in vivo.
A short description of data set [5]: Drug uptake in human adult CSF at 75 mg, im up to 8.5 hrs by HPLC. Also on record: dose 75 mg, route intramuscular. Type of data set: ADME, organism-based, Cerebrospinal fluid.

On to `NCC[C@H](O)C(=O)N[C@@H]1C[C@H](N)[C@@H](O[C@H]2O[C@H](CN)[C@@H](O)[C@H](O)[C@H]2O)[C@H](O)[C@H]1O[C@H]1O[C@H](CO)[C@@H](O)[C@H](N)[C@H]1O` [AMIKACIN], for which the peak concentration (Cmax) in data set [1] was 1080 ng/mL; in data set [3], 35700 ng/mL; in data set [4], less than 200 ng/mL; in data set [5] it was less than 500 ng/mL. Also, in data set [2], the concentration at 25 h is 3800 ng/mL.
